Our source for the Ki values is BindingDB's records for patent US10766884 (Pfizer Inc., 2020).

The target in this experiment is Cyclin-dependent kinase 6/G1/S-specific cyclin-D3 (Homo sapiens, UniProt Q00534). The experiment can be described thus: Biological Assay. How it is done:
CDK6/Cyclin D3: The purpose of the CDK6/Cyclin D3 assay is to evaluate the inhibition (% inhibition, Kiapp and Ki values) in the presence of small molecule inhibitors by using a fluorescence based microfluidic mobility shift assay. […] The mobility shift assay electrophoretically separates the fluorescently labeled peptides (substrate and phosphorylated product) following the kinase reaction. Both substrate and product are measured and the ratio of these values is used to generate % conversion of substrate to product by the LabChip EZ Reader.

For orientation: Ki means a measure of affinity in units of concentration, obtained from inhibition or displacement.

Cyclin-dependent kinase 6/G1/S-specific cyclin-D3, sequence (Q00534 whole entry): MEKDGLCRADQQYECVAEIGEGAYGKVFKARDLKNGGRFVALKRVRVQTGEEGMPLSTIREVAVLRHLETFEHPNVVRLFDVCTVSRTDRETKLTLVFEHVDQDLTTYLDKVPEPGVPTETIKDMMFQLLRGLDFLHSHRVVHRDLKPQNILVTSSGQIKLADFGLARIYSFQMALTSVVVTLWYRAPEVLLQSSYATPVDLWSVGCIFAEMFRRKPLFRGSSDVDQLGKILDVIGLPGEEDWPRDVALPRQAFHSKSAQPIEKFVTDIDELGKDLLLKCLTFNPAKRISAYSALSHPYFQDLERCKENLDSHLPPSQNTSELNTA
Cyclin-dependent kinase 6/G1/S-specific cyclin-D3, sequence (P30281 whole entry, further chain): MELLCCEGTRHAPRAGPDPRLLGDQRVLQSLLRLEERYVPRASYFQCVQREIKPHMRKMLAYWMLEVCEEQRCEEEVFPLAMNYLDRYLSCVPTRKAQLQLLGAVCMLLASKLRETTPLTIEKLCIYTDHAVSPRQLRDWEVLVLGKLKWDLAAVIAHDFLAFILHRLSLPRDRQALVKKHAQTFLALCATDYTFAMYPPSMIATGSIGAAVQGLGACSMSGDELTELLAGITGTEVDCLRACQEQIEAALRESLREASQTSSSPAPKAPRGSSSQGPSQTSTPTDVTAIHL

As to `Cc1nc2c(F)cc(-c3cc(N[C@@H]4CCN(S(C)(=O)=O)C[C@H]4O)ncc3Cl)cc2n1C(C)C` [US10766884, Example E01], the inhibitory constant (Ki) amounted to 1.4 nM.
